Experiments:
[1] = target: T1, ligand-binding domain of RORγ (RORγ-LBD) (Homo sapiens, UniProt P51449); experiment: Inhibitory effect on RORγ-coactivator binding (LanthaScreen TR-FRET RORγ Coactivator Assay); conditions: at 33 μmol/L of the test compound; read-out: RORγ-coactivator binding inhibition rate (%)
T1 construct: purchased Invitrogen
T1 sequence (P51449 269-508 limits assumed): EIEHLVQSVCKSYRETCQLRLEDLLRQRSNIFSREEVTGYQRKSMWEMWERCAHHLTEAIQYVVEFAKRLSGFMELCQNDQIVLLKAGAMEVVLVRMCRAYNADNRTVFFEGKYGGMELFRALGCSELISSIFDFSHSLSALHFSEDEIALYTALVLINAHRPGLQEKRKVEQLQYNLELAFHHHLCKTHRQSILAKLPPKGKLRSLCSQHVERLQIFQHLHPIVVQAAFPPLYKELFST
Protocol: The inhibitory effect of the cyclic amine derivative (I) or a pharmacologically acceptable salt thereof on the binding between a ligand-binding domain of RORγ (hereinafter referred to as RORγ-LBD) and a coactivator was evaluated using Invitrogen's LanthaScreen™TR-FRET Retinoid-Related Orphan Receptor (ROR) gamma Coactivator Assay kit utilizing time-resolved fluorescence energy transfer (TR-FRET).
The test compound was dissolved in DMSO and diluted with TR-FRET Coregulator Buffer D (Invitrogen) containing 5 mmol/L of DTT to have a final DMSO concentration of 1% before use. To each well of a 384-well black plate (Corning Inc.), 4 nmol/L of GST-fused RORγ-LBD (Invitrogen) diluted with the buffer mentioned above and the test compound were added. A well without addition of the test compound and without addition of GST-fused RORγ-LBD (background) and a well without addition of the test compound and with addition of GST-fused RORγ-LBD (control) were prepared. Next, 150 nmol/L of fluorescein-labeled TRAP220/DRIP-2 (Invitrogen) diluted with the buffer mentioned above and 32 nmol/L of terbium-labeled anti-GST antibody (Invitrogen) were added to each well. After incubating the plate at room temperature for 16 to 24 hours, the fluorescence at 495 nm and 520 nm when excited at 320 nm was measured for each well and the ratio (fluorescence value at 520 nm/fluorescence value at 495 nm) was calculated.
The fold change with addition of the test compound (ratio with addition of the test compound/ratio of the background), the fold change of the control (ratio of the control/ratio of the background), and the fold change of the background (ratio of the background/ratio of the background) were calculated, and then the inhibition rate of binding between RORγ-LBD and a coactivator (hereinafter referred to as RORγ-coactivator binding inhibition rate) (%) was calculated from Formula 1: RORγ-coactivator binding inhibition rate(%)=(1−((Fold change with addition of the test compound)−(Fold change of the background))/((Fold change of the control)−(Fold change of the background)))×100 Formula 1

[2] = tested on: IL-17 production in mouse splenocytes; experiment: Suppressive effect on IL-17 production by IL-23 stimulation in mouse splenocytes; type: cell-based; conditions: Splenocyte, 72 h, at 5 μmol/L of the test compound, 10 ng/mL human IL-23, 3 days, read-out: IL-17 production inhibition rate (%)
Protocol: Using mouse splenocytes, the suppressive effect of the cyclic amine derivative (I) or a pharmacologically acceptable salt thereof on IL-17 production by IL-23 stimulation was evaluated by a partially modified method mentioned in The Journal of Biological Chemistry, 2003, Vol. 278, No. 3, p. 1910-1914.
A single cell suspension was prepared from the spleen of C57BL/6J mice (male, 7 to 23 weeks old) (Charles River Laboratories Japan, Inc.) and splenocytes were prepared using Histopaque-1083 (Sigma-Aldrich Japan). The culture medium was used by adding 10% FBS (Gibco), 50 U/mL of penicillin 50 μg/mL of streptomycin (Gibco), 50 μmol/L of 2-mercaptoethanol (Gibco), and 100 U/mL of human IL-2 (Cell Science & Technology Institute, Inc.) to RPMI1640 medium (Gibco). The test compound was dissolved in DMSO and then diluted with the culture medium to have a final concentration of DMSO of 0.1% before use. Splenocytes (3×10^5 cells/well) prepared in the culture medium were seeded in wells of a 96-well flat-bottom plate (Corning Incorporated), the test compound and 10 ng/mL of human IL-23 (R & D systems, Inc.) were added thereto, and the cells were cultured at 37° C. under 5% CO2 for 3 days. A well without addition of human IL-23 and without addition of the test compound and a well with addition of human IL-23 and without addition of the test compound were prepared. After completion of the culture, the culture supernatant was collected and the IL-17 production amount in the supernatant was determined by ELISA method (R & D systems, Inc.).
The IL-17 production inhibition rate (%) was calculated from Formula 2. IL-17 production inhibition rate(%)=(1−((IL-17 production amount with addition of IL-23 and with addition of the test compound)−(IL-17 production amount without addition of IL-23 and without addition of the test compound))/((IL-17 production amount with addition of IL-23 and without addition of the test compound)−(IL-17 production amount without addition of IL-23 and without addition of the test compound)))×100 Formula 2

Row | inhibition at 33 µM [1] | Compound | inhibition at 5 µM [2]
1 | 101% | Cn1ccnc1CC(=O)N1CCCCC1C(=O)Nc1ccc(-c2ccccc2OC(F)(F)F)c(Cl)c1 (stereo not shown) [Example 50, N-(2-chloro-2′-(trifluoromethoxy)-[1,1′-biphenyl]-4-yl)-1-(2-(1-methyl-1H-imidazol-2-yl)acetyl)piperidine-2-carboxamide] | 94.5%
2 | 103% | O=C(Nc1ccc(-c2ccccc2OC(F)(F)F)c(Cl)c1)[C@H]1CCCCN1C(=O)Cn1nccn1 [Example 66, (R)-1-(2-(2H-1,2,3-triazol-2-yl)acetyl)-N-(2-chloro-2′-(trifluoromethoxy)-[1,1′-biphenyl]-4-yl)piperidine-2-carboxamide] | 99.5%
3 | 100% | CS(=O)(=O)N1CCCCC1C(=O)Nc1ccc(-c2ccccc2OC(F)(F)F)c(Cl)c1 (stereo not shown) [Example 15, N-(2-chloro-2′-(trifluoromethoxy)-[1,1′-biphenyl]-4-yl)-1-(methylsulfonyl)piperidine-2-carboxamide] | 99.4%
4 | 99% | COC(=O)CC(=O)N1CCCCC1C(=O)Nc1ccc(-c2ccccc2OC(F)(F)F)c(Cl)c1 (stereo not shown) [Example 43, methyl 3-(2-((2-chloro-2′-(trifluoromethoxy)-[1,1′-biphenyl]-4-yl)carbamoyl)piperidin-1-yl)-3-oxopropanoate] | 92.4%
5 | 104% | CCN(CC(=O)N1CCCCC1C(=O)Nc1ccc(-c2ccccc2OC(F)(F)F)c(Cl)c1)S(C)(=O)=O (stereo not shown) [Example 37, N-(2-chloro-2′-(trifluoromethoxy)-[1,1′-biphenyl]-4-yl)-1-(2-(N-ethylmethylsulfonamide)acetyl)piperidine-2-carboxamide] | 99.1%
6 | 101% | CS(=O)(=O)N1CCC(F)(F)C[C@@H]1C(=O)Nc1ccc(-c2ccccc2OC(F)(F)F)c(Cl)c1 [Example 28, (R)-N-(2-chloro-2′-(trifluoromethoxy)-[1,1′-biphenyl]-4-yl)-4,4-difluoro-1-(methylsulfonyl)piperidine-2-carboxamide] | 98.6%
7 | 104% | Cc1cc(CC(=O)N2CCCCC2C(=O)Nc2ccc(-c3ccccc3OC(F)(F)F)c(Cl)c2)on1 (stereo not shown) [Example 56, 1-(2-(3-methylisoxazol-5-yl)acetyl)-N-(2-chloro-2′-(trifluoromethoxy)-[1,1′-biphenyl]-4-yl)piperidine-2-carboxamide] | 107%
8 | 98.8% | CSCCC(=O)N1CCCCC1C(=O)Nc1ccc(-c2ccccc2OC(F)(F)F)c(Cl)c1 (stereo not shown) [Example 39, N-(2-chloro-2′-(trifluoromethoxy)-[1,1′-biphenyl]-4-yl)-1-(3-(methylthio)propanoyl)piperidine-2-carboxamide] | 99.2%
9 | 104% | Cc1cc(C)n(CC(=O)N2CCCCC2C(=O)Nc2ccc(-c3ccccc3OC(F)(F)F)c(Cl)c2)n1 (stereo not shown) [Example 55, 1-(2-(3,5-dimethyl-1H-pyrazol-1-yl)acetyl)-N-(2-chloro-2′-(trifluoromethoxy)-[1,1′-biphenyl]-4-yl)piperidine-2-carboxamide] | 99.7%
10 | 98.2% | CS(=O)(=O)N1CCCC[C@@H]1C(=O)Nc1ccc(-c2ccccc2OC(F)(F)F)c(Cl)c1 [Example 21, (R)-N-(2-chloro-2′-(trifluoromethoxy)-[1,1′-biphenyl]-4-yl)-1-(methylsulfonyl)piperidine-2-carboxamide] | 99.8%

Continued, molecule first:

Row | Compound | inhibition at 33 µM [1] | inhibition at 5 µM [2]
11 | O=C(Nc1ccc(-c2ccccc2OC(F)(F)F)c(Cl)c1)[C@H]1CCCCN1C(=O)Cn1ccnc1 [Example 65, (R)-1-(2-(1H-imidazol-1-yl)acetyl)-N-(2-chloro-2′-(trifluoromethoxy)-[1,1′-biphenyl]-4-yl)piperidine-2-carboxamide] | 91.7% | 99.6%
12 | NC(=O)N1CCCC[C@@H]1C(=O)Nc1ccc(-c2ccccc2OC(F)(F)F)c(Cl)c1 [Example 22, (R)-N^2-(2-chloro-2′-(trifluoromethoxy)-[1,1′-biphenyl]-4-yl)piperidine-1,2-dicarboxamide] | 92.4% | 98.1%
13 | CCS(=O)(=O)N1CCCCC1C(=O)Nc1ccc(-c2ccccc2OC(F)(F)F)c(Cl)c1 (stereo not shown) [Example 14, N-(2-chloro-2′-(trifluoromethoxy)-[1,1′-biphenyl]-4-yl)-1-(ethylsulfonyl)piperidine-2-carboxamide] | 94% | 90.5%
14 | Cn1cc(C(=O)N2CCCCC2C(=O)Nc2ccc(-c3ccccc3OC(F)(F)F)c(Cl)c2)cn1 (stereo not shown) [Example 46, N-(2-chloro-2′-(trifluoromethoxy)-[1,1′-biphenyl]-4-yl)-1-(1-methyl-1H-pyrazole-4-carbonyl)piperidine-2-carboxamide] | 99.3% | 99.2%
15 | COCCC(=O)N1CCCCC1C(=O)Nc1ccc(-c2ccccc2OC(F)(F)F)c(Cl)c1 (stereo not shown) [Example 45, N-(2-chloro-2′-(trifluoromethoxy)-[1,1′-biphenyl]-4-yl)-1-(3-methoxypropanoyl)piperidine-2-carboxamide] | 92% | 99.9%
16 | COCC(=O)N1CCCCC1C(=O)Nc1ccc(-c2ccccc2OC(F)(F)F)c(Cl)c1 (stereo not shown) [Example 4, N-(2-chloro-2′-(trifluoromethoxy)-[1,1′-biphenyl]-4-yl)-1-(2-methoxyacetyl)piperidine-2-carboxamide] | 90.3% | 99.7%
17 | O=C(Nc1ccc(-c2ccccc2OC(F)(F)F)c(Cl)c1)C1CCCCN1C(=O)C(F)(F)F (stereo not shown) [Example 2, N-(2-chloro-2′-(trifluoromethoxy)-[1,1′-biphenyl]-4-yl)-1-(2,2,2-trifluoroacetyl)piperidine-2-carboxamide] | 91.9% | 96.2%
18 | CS(=O)(=O)NCC(=O)N1CCCCC1C(=O)Nc1ccc(-c2ccccc2OC(F)(F)F)c(Cl)c1 (stereo not shown) [Example 10, N-(2-chloro-2′-(trifluoromethoxy)-[1,1′-biphenyl]-4-yl)-1-(2-(methylsulfonamide)acetyl)piperidine-2-carboxamide] | 100% | 98.6%
19 | Cc1nnc(CC(=O)N2CCCC[C@@H]2C(=O)Nc2ccc(-c3ccccc3OC(F)(F)F)c(Cl)c2)o1 [Example 67, (R)-N-(2-chloro-2′-(trifluoromethoxy)-[1,1′-biphenyl]-4-yl)-1-(2-(5-methyl-1,3,4-oxadiazol-2-yl)acetyl)piperidine-2-carboxamide] | 99.1% | 98.7%
20 | O=C(Nc1ccc(-c2ccccc2OC(F)(F)F)c(Cl)c1)[C@H]1CCCCN1C(=O)C(F)(F)F [Example 23, (R)-N-(2-chloro-2′-(trifluoromethoxy)-[1,1′-biphenyl]-4-yl)-1-(2,2,2-trifluoroacetyl)piperidine-2-carboxamide] | 98.4% | 99.4%

Reference: patent US10364222B2, “Cyclic amine derivative and medical use thereof” (Toray Industries, Inc., priority 2016, dated 2019)
